In patent publication US10420758B2, “Indolinyl-sulfonamide inhibitors of tankyrase and methods of use thereof” (The Board of Regents of the University of Texas System, priority 2015, dated 2019):

System: Dvl2
Assay: Ligand-dependent phosphorylation of Dvl2
Type: cell-based, human
Settings: HeLa cells, FIG. 4E
Description: FIGS. 4A-4F show Tnks inhibitors induce telomeric stress in human cells independently of Wnt/β-catenin pathway inhibition. (FIG. 4A) Porcn inhibitors afford a Tnks-independent approach to disrupting Wnt/β-catenin signaling. Chemicals targeting the Wnt acyltransferase Porcn abrogate Wnt palmitoylation which in turn results in loss of activity of the Frizzled (Fzd) family of Wnt receptors. Fzd receptors directly induce activation of the cytoplasmic signaling molecule Dishevelled (Dvl) in a ligand-dependent manner, which in turn results in activation of β-catenin and transcription mediated by the TCF family of DNA binding proteins. IWP-2 and the clinical candidate LGK-974 represent two structurally distinct Porcn inhibitors. (FIG. 4B) Tnks but not Porcn inhibitors induce DNA damage at telomeres. The appearance of co-localized Terf2 and pH2A.X (an indicator of DNA damage at the telomere ends; Telomere Induced Foci or TIFs) was scored using indirect immunofluorescence in Hela cells (expressing wild-type Apc protein). (FIG. 4C) Quantification of results represented in “B”. Cells with >5 TIFs were scored as positive for telomeric damage (left bars). Mean total phosphorylated H2A.X (γ H2A.X) was used to measure general DNA damage responses (right bars). […] Digital droplet-based telomerase extension analysis of genomic DNA isolated from HeLa cells treated for 24 hrs with indicated compounds. […]

Row | Structure (SMILES) | ligand-dependent phosphorylation of Dvl2
1 | Cc1ccc2nc(NC(=O)CSc3nc4c(c(=O)n3-c3ccccc3)SCC4)sc2c1 [IWP-2] | block ligand-dependent phosphorylation of Dvl2
2 | Cc1cc(-c2ncc(CC(=O)Nc3ccc(-c4cnccn4)cn3)cc2C)ccn1 [LGK-974] | block ligand-dependent phosphorylation of Dvl2
